pEC50: −log10 of the molar value.
These compounds were tested on HEK293T cells carrying the ATF4 luciferase reporter (assay: ATF4-Luc assay, in vitro model of Vanishing Cell White Matter Disease (VWMD)). Conditions: Homo sapiens, HEK-293T, 1 μg/mL tunicamycin, 7 hours, One Glo luminescence.
Assay type: cell-based
Outline: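 Reporter cells were stably generated by retroviral transduction and puromycin selection, then seeded at 30,000 cells/well. Next day, cells received 1 μg/mL tunicamycin with 200 nM test compound for 7 h, and luciferase luminescence was read with a one-step reagent. Values reported as EC50.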

Compound	pEC50
CCOc1ccccc1C(=O)NC12CC(NC(=O)COc3ccc(Cl)c(F)c3)(C1)C2 [Compound 538, N-{3-[2-(4-chloro-3-fluorophenoxy)acetamido]bicyclo[1.1.1]pentan-1-yl}-2-ethoxybenzamide]	> 7.30
Cc1c(C(=O)NC23CCC(NC(=O)COc4ccc(Cl)c(F)c4)(CC2)CC3O)cnn1-c1ccccc1 (stereo not drawn) [Compound 221, N-{4-[2-(4-chloro-3-fluorophenoxy)acetamido]-2-hydroxybicyclo[2.2.2]octan-1-yl}-5-methyl-1-phenyl-1H-pyrazole-4-carboxamide]	5.70 to 6.00
O=C(COc1ccc(Cl)c(F)c1)NC12CCC(NC(=O)c3ccccc3F)(CC1)[C@@H](O)C2 [Compound 483, N-{(2S)-4-[2-(4-chloro-3-fluorophenoxy)acetamido]-2-hydroxybicyclo[2.2.2]octan-1-yl}-2-fluorobenzamide]	6.60 to 7.30
O=C(COc1ccc(Cl)c(F)c1)NC12CC(NC(=O)c3cnco3)(C1)C2 [Compound 573, N-{3-[2-(4-chloro-3-fluorophenoxy)acetamido]bicyclo[1.1.1]pentan-1-yl}-1,3-oxazole-5-carboxamide]	5.70 to 6.00
Cc1cc(C(=O)NC23CCC(NC(=O)COc4ccc(Cl)c(F)c4)(C2)C3)on1 [Compound 324, N-{4-[2-(4-chloro-3-fluorophenoxy)acetamido]bicyclo[2.1.1]hexan-1-yl}-3-methyl-1,2-oxazole-5-carboxamide]	6.00 to 6.60
Cc1nnsc1C(=O)NC12CC(NC(=O)COc3ccc(Cl)c(F)c3)(C1)C2 [Compound 845, N-{3-[2-(4-chloro-3-fluorophenoxy)acetamido]bicyclo[1.1.1]pentan-1-yl}-4-methyl-1,2,3-thiadiazole-5-carboxamide]	< 5.70
CC(C)c1nnsc1C(=O)NC12CC(NC(=O)COc3ccc(Cl)c(F)c3)(C1)C2 [Compound 893, N-{3-[2-(4-chloro-3-fluorophenoxy)acetamido]bicyclo[1.1.1]pentan-1-yl}-4-(propan-2-yl)-1,2,3-thiadiazole-5-carboxamide]	5.70 to 6.00
COCc1cncc(C(=O)NC23CC(NC(=O)COc4ccc(Cl)c(F)c4)(C2)C3)c1 [Compound 568, N-{3-[2-(4-chloro-3-fluorophenoxy)acetamido]bicyclo[1.1.1]pentan-1-yl}-5-(methoxymethyl)pyridine-3-carboxamide]	6.60 to 7.30
O=C(COc1ccc(Cl)c(F)c1)NC12CC(NC(=O)c3ncoc3C3CC3)(C1)C2 [Compound 769, N-{3-[2-(4-chloro-3-fluorophenoxy)acetamido]bicyclo[1.1.1]pentan-1-yl}-5-cyclopropyl-1,3-oxazole-4-carboxamide]	< 5.70
Cc1cnc(C(=O)NC23CCC(NC(=O)COc4ccc(Cl)c(F)c4)(C2)C3)s1 [Compound 616, N-{4-[2-(4-chloro-3-fluorophenoxy)acetamido]bicyclo[2.1.1]hexan-1-yl}-5-methyl-1,3-thiazole-2-carboxamide]	< 5.70
O=C(COc1ccc(Cl)c(F)c1)NC12CC(NC(=O)c3ccc4nsnc4c3)(C1)C2 [Compound 797, N-{3-[2-(4-chloro-3-fluorophenoxy)acetamido]bicyclo[1.1.1]pentan-1-yl}-2,1,3-benzothiadiazole-5-carboxamide]	< 5.70
Cc1cc(C(=O)NC23CC(NC(=O)COc4ccc(Cl)c(F)c4)(C2)C3)on1 [Compound 295, N-{3-[2-(4-chloro-3-fluorophenoxy)acetamido]bicyclo[1.1.1]pentan-1-yl}-3-methyl-1,2-oxazole-5-carboxamide]	6.00 to 6.60
O=C(COc1ccc(Cl)c(F)c1)NC12CCC(NC(=O)c3ccccn3)(C1)C2 [Compound 356, N-{4-[2-(4-chloro-3-fluorophenoxy)acetamido]bicyclo[2.1.1]hexan-1-yl}pyridine-2-carboxamide]	< 5.70
CCn1nc(C)cc1C(=O)NC12CCC(NC(=O)COc3ccc(Cl)c(F)c3)(CC1)C(O)C2 (stereo not drawn) [Compound 603, N-{4-[2-(4-chloro-3-fluorophenoxy)acetamido]-3-hydroxybicyclo[2.2.2]octan-1-yl}-1-ethyl-3-methyl-1H-pyrazole-5-carboxamide]	6.00 to 6.60
O=C(COc1ccc(Cl)c(F)c1)NC12CC(NC(=O)c3cnc(-c4ccccc4)o3)(C1)C2 [Compound 344, N-{3-[2-(4-chloro-3-fluorophenoxy)acetamido]bicyclo[1.1.1]pentan-1-yl}-2-phenyl-1,3-oxazole-5-carboxamide]	> 7.30
O=C(COc1ccc(Cl)c(Cl)c1)NC12CC(NC(=O)c3ccncn3)(C1)C2 [Compound 261, N-{3-[2-(3,4-dichlorophenoxy)acetamido]bicyclo[1.1.1]pentan-1-yl}pyrimidine-4-carboxamide]	6.00 to 6.60
CCn1cncc1C(=O)NC12CC(NC(=O)COc3ccc(Cl)c(F)c3)(C1)C2 [Compound 775, N-{3-[2-(4-chloro-3-fluorophenoxy)acetamido]bicyclo[1.1.1]pentan-1-yl}-1-ethyl-1H-imidazole-5-carboxamide]	< 5.70

Compound	pEC50
O=C(COc1ccc(Cl)c(F)c1)NC12CC(Nc3cncc(-c4ccc(Cl)cc4)n3)(C1)C2 [Compound 395, 2-(4-chloro-3-fluorophenoxy)-N-(3-{[6-(4-chlorophenyl)pyrazin-2-yl]amino}bicyclo[1.1.1]pentan-1-yl)acetamide]	< 5.70
O=C(COc1ccc(Cl)c(F)c1)NC12CCC(NC(=O)c3ccc(OCC(F)(F)F)nc3)(CC1)CC2O (stereo not drawn) [Compound 579, N-{4-[2-(4-chloro-3-fluorophenoxy)acetamido]-3-hydroxybicyclo[2.2.2]octan-1-yl}-6-(2,2,2-trifluoroethoxy)pyridine-3-carboxamide]	6.60 to 7.30
Cc1nn(C)c2c(NC34CC(NC(=O)COc5ccc(Cl)c(F)c5)(C3)C4)ncnc12 [Compound 426, 2-(4-chloro-3-fluorophenoxy)-N-{3-[(1,3-dimethyl-1H-pyrazolo[4,3-d]pyrimidin-7-yl)amino]bicyclo[1.1.1]pentan-1-yl}acetamide]	< 5.70
Cc1ccn2cc(C(=O)NC34CC(NC(=O)COc5ccc(Cl)c(F)c5)(C3)C4)nc2c1 [Compound 808, N-{3-[2-(4-chloro-3-fluorophenoxy)acetamido]bicyclo[1.1.1]pentan-1-yl}-7-methylimidazo[1,2-a]pyridine-2-carboxamide]	< 5.70
CC(C)(C)OC(=O)NCc1ccnc(C(=O)NC23CC(NC(=O)COc4ccc(Cl)c(F)c4)(C2)C3)c1 [Compound 192, tert-butyl {[2-({3-[2-(4-chloro-3-fluorophenoxy)acetamido]bicyclo[1.1.1]pentan-1-yl}carbamoyl)pyridin-4-yl]methyl}carbamate]	6.00 to 6.60
COc1cc(C(=O)NC23CC(NC(=O)COc4ccc(Cl)c(F)c4)(C2)C3)c(OC)nn1 [Compound 788, N-{3-[2-(4-chloro-3-fluorophenoxy)acetamido]bicyclo[1.1.1]pentan-1-yl}-3,6-dimethoxypyridazine-4-carboxamide]	< 5.70
O=C(COc1ccc(Cl)c(Cl)c1)NC12CC(NC(=O)c3ccc(Cl)c(F)c3)(C1)C2 [Compound 685, 4-chloro-N-{3-[2-(3,4-dichlorophenoxy)acetamido]bicyclo[1.1.1]pentan-1-yl}-3-fluorobenzamide]	> 7.30
Cc1csc(C(=O)NC23CCC(NC(=O)COc4ccc(Cl)c(F)c4)(CC2)C(O)C3)c1 (stereo not drawn) [Compound 622, N-{4-[2-(4-chloro-3-fluorophenoxy)acetamido]-3-hydroxybicyclo[2.2.2]octan-1-yl}-4-methylthiophene-2-carboxamide]	> 7.30
CCc1ccc(C(=O)NC23CCC(NC(=O)COc4ccc(Cl)c(F)c4)(CC2)[C@@H](O)C3)nc1 [Compound 754, N-{(3S)-4-[2-(4-chloro-3-fluorophenoxy)acetamido]-3-hydroxybicyclo[2.2.2]octan-1-yl}-5-ethylpyridine-2-carboxamide]	> 7.30
O=C(COc1ccc(Cl)c(F)c1)NC12CC(NC(=O)c3cc(C(F)(F)F)no3)(C1)C2 [Compound 380, N-{3-[2-(4-chloro-3-fluorophenoxy)acetamido]bicyclo[1.1.1]pentan-1-yl}-3-(trifluoromethyl)-1,2-oxazole-5-carboxamide]	6.00 to 6.60
O=C(COc1ccc(Cl)c(Cl)c1)NC12CC(NC(=O)c3ccc(OC(F)(F)F)nc3)(C1)C2 [Compound 147, N-{3-[2-(3,4-dichlorophenoxy)acetamido]bicyclo[1.1.1]pentan-1-yl}-6-(trifluoromethoxy)pyridine-3-carboxamide]	6.60 to 7.30
Cc1nn(C)c(C(=O)NC23CC(NC(=O)COc4ccc(Cl)c(F)c4)(C2)C3)c1F [Compound 499, N-{3-[2-(4-chloro-3-fluorophenoxy)acetamido]bicyclo[1.1.1]pentan-1-yl}-4-fluoro-1,3-dimethyl-1H-pyrazole-5-carboxamide]	> 7.30
O=C(COc1ccc(Cl)c(F)c1)NC12CC(NC(=O)c3cc(C(F)F)no3)(C1)C2 [Compound 654, N-{3-[2-(4-chloro-3-fluorophenoxy)acetamido]bicyclo[1.1.1]pentan-1-yl}-3-(difluoromethyl)-1,2-oxazole-5-carboxamide]	6.60 to 7.30
Cc1cc(C(=O)NC23CCC(NC(=O)COc4ccc(Cl)c(F)c4)(CC2)C(O)C3)no1 (stereo not drawn) [Compound 272, N-{4-[2-(4-chloro-3-fluorophenoxy)acetamido]-3-hydroxybicyclo[2.2.2]octan-1-yl}-5-methyl-1,2-oxazole-3-carboxamide]	6.60 to 7.30
CC(C)(C)OC(=O)N1CCC=C(c2ncc(C(=O)NC34CC(NC(=O)COc5ccc(Cl)c(F)c5)(C3)C4)o2)C1 [Compound 150, tert-butyl 5-[5-({3-[2-(4-chloro-3-fluorophenoxy)acetamido]bicyclo[1.1.1]pentan-1-yl}carbamoyl)-1,3-oxazol-2-yl]-3,6-dihydropyridine-1(2H)-carboxylate]	6.60 to 7.30
O=C(COc1ccc(Cl)c(F)c1)NC12CCC(NC(=O)c3ccc(F)cc3)(CC1)CC2O (stereo not drawn) [Compound 231, N-{4-[2-(4-chloro-3-fluorophenoxy)acetamido]-3-hydroxybicyclo[2.2.2]octan-1-yl}-4-fluorobenzamide]	6.60 to 7.30
